The molecules below were run against T1, HIV integrase (Human immunodeficiency virus type 1 group M subtype B, UniProt P12497, F1332H) (assay: Determination of enzyme (HIV integrase) inhibitory activity). Details: recombinant integrase protein (F185H), strand transfer plate assay, absorbance at 450 nm.
T1 construct: HIV integrase full length gene; made in house; host or cells: Escherichia coli BL21(DE3)
Format: biochemical, HIV (Human Immunodeficiency Virus (type 1))
Text: The following explains evaluation methods of the HIV integrase inhibitory activity of the compound of the present invention.
(i) Construction of Recombinant Integrase Gene Expression System
HIV integrase full length gene (J. Virol., 67, 425-437 (1993)) in which phenylalanine at codon 185 was substituted by histidine, was inserted between the restriction enzyme NdeI and XhoI sites of plasmid pET21a(+) (Novagen), whereby an integrase expression vector pET21a-IN-F185H was constructed.
(ii) Production and Purification of Integrase Protein
Escherichia coli recombinant BL21(DE3) transformed with plasmid pET21a-IN-F185H obtained in (i) was shake cultured at 30° C. in a liquid medium containing ampicillin. When the culture reached the logarithmic growth phase, isopropyl-β-D-thiogalactopyranoside was added to promote expression of integrase gene. The culture was continued for 3 hr to promote accumulation of the integrase protein. The recombinant E. coli was collected in pellets by centrifugal separation and preserved at −80° C.
The E. coli was suspended in Lysis buffer ([…] HEPES (pH 7.5), 5 mM DTT, 10 mM CHAPS, 10% glycerol) containing 1M sodium chloride and subjected to repeat pressurization and depressurization for rupture, and centrifugal separation at 4° C., 40,000×g, 60 min to recover a water-soluble fraction (supernatant). This was diluted 10-fold with Lysis buffer free of sodium chloride, mixed with SP-Sepharose (GE healthcare Bioscience) and stirred at 4° C. for 60 min to allow adsorption of integrase protein to the resin. The resin was washed with Lysis buffer containing 100 mM sodium chloride and the integrase protein was eluted with Lysis buffer containing 1M sodium chloride.
The eluted integrase protein solution was subjected to a Superdex 75 (GE healthcare Bioscience) column for gel filtration. The protein was eluted with Lysis buffer containing 1M sodium chloride.
The obtained fractions of the integrase protein were collected and preserved at −80° C.
(iii) Preparation of DNA Solution
The following DNA synthesized by Greiner or FASMAC was dissolved in TE buffer (10 mM Tris-hydrochloric acid (pH 8.0), 1 mM EDTA) and mixed with donor DNA, target DNA, and each complementary strand (+ and − strands) to 1 μM. The mixture was heated at 95° C. for 5 min, 80° C. for 10 min, 70° C. for 10 min, 60° C. for 10 min, 50° C. for 10 min and 40° C. for 10 min and kept at 25° C. to give a double stranded DNA, which was used for the test.
(iv) Determination of Enzyme (HIV Integrase) Inhibitory Activity
The donor DNA was diluted with TE buffer to 10 nM (or 5 nM), of which 50 μl was added to each well of streptavidin-coated microtiter plate (Roche) and allowed to adsorb at 37° C. for 60 min. The plate was washed with phosphate buffer (Dulbecco's PBS, Sanko Junyaku Co., Ltd.) containing 0.1% Tween 20 and phosphate buffer. Then, an enzyme reaction mixture (70 μl), a test substance (10 μl) diluted with the enzyme reaction mixture and 100 μg/ml (or 64 μg/ml (2 μM)) integrase protein (10 μl) were added to each well and reacted at 37° C. for 60 min.
Composition of the enzyme reaction mixture: 30 mM MOPS (3-morpholinopropanesulfonic acid), 5 mM magnesium chloride, 3 mM DTT (dithiothreitol), 0.1 mg/ml BSA (bovine serum albumin), 5% glycerol, 10% DMSO (dimethyl sulfoxide), 0.01% Tween 20.
Then, 50 nM (or 25 nM) target DNA (10 μl) was added, reacted at 37° C. for 10 min and washed with phosphate buffer containing 0.1% Tween 20 to stop the reaction.
Then, 100 mU/ml peroxidase labeled anti-digoxigenin antibody solution (Roche, 100 μl) was added, and the mixture was reacted at 37° C. for 60 min, followed by washing with phosphate buffer containing 0.1% Tween 20.
A peroxidase color solution (Bio Rad, 100 μl) was added and allowed to react at room temperature for 4 min (or 3 min). The color reaction was stopped by adding IN sulfuric acid (100 μl). The absorbance at 450 nm was measured. […]

| SMILES | IC50 |
| --- | --- |
| COc1cc2c(cc1Cc1cc(N3CCOCC3)cc(Cl)c1F)c(=O)c(C(=O)O)cn2[C@H](CO)C(C)(C)OC [Example 42, 6-[3-chloro-2-fluoro-5-(morpholin-4-yl)benzyl]-1-((R)-1-hydroxymethyl-2-methoxy-2-methylpropyl)-7-methoxy-4-oxo-1,4-dihydroquinoline-3-carboxylic acid] | < 0.01 µM |
| CCc1cc2c(cc1Cc1cc(N3CCOCC3)cc(Cl)c1F)c(=O)c(C(=O)O)cn2[C@H](CO)C(C)(C)OC [Example 43, 6-[3-chloro-2-fluoro-5-(morpholin-4-yl)benzyl]-7-ethyl-1-((R)-1-hydroxymethyl-2-methoxy-2-methylpropyl)-4-oxo-1,4-dihydroquinoline-3-carboxylic acid] | < 0.01 µM |
| CCc1cc2c(cc1Cc1cc(N3CCOCC3)cc(Cl)c1F)c(=O)c(C(=O)O)cn2[C@H](CO)CCOC [Example 44, 6-[3-chloro-2-fluoro-5-(morpholin-4-yl)benzyl]-7-ethyl-1-((S)-1-hydroxymethyl-3-methoxypropyl)-4-oxo-1,4-dihydroquinoline-3-carboxylic acid] | 0.01 to 0.1 µM |
| COc1cc2c(cc1Cc1cc(N3CCCC3=O)cc(Cl)c1F)c(=O)c(C(=O)O)cn2[C@H](CO)C(C)(C)C [Example 45, 6-[3-chloro-2-fluoro-5-(2-oxopyrrolidin-1-yl)benzyl]-1-((S)-1-hydroxymethyl-2,2-dimethylpropyl)-7-methoxy-4-oxo-1,4-dihydroquinoline-3-carboxylic acid] | < 0.01 µM |
| COc1cc2c(cc1Cc1cc(N3CCCC3=O)c(F)c(Cl)c1F)c(=O)c(C(=O)O)cn2[C@H](CO)C(C)(C)C [Example 46, 6-[3-chloro-2,4-difluoro-5-(2-oxopyrrolidin-1-yl)benzyl]-1-((S)-1-hydroxymethyl-2,2-dimethylpropyl)-7-methoxy-4-oxo-1,4-dihydroquinoline-3-carboxylic acid] | < 0.01 µM |
| COCC[C@@H](CO)n1cc(C(=O)O)c(=O)c2cc(Cc3cc(N4CCCC4=O)cc(Cl)c3F)c(OC)cc21 [Example 47, 6-[3-chloro-2-fluoro-5-(2-oxopyrrolidin-1-yl)benzyl]-1-((S)-1-hydroxymethyl-3-methoxypropyl)-7-methoxy-4-oxo-1,4-dihydroquinoline-3-carboxylic acid] | 0.01 to 0.1 µM |
| COc1cc2c(cc1Cc1cc(N3CCCC3=O)cc(Cl)c1F)c(=O)c(C(=O)O)cn2[C@H](CO)[C@@H](C)OC [Example 48, 6-[3-chloro-2-fluoro-5-(2-oxopyrrolidin-1-yl)benzyl]-1-((1R,2R)-1-hydroxymethyl-2-methoxypropyl)-7-methoxy-4-oxo-1,4-dihydroquinoline-3-carboxylic acid] | < 0.01 µM |
| COc1cc2c(cc1Cc1cc(N3CCOCC3)c(F)c(Cl)c1F)c(=O)c(C(=O)O)cn2[C@H](CO)C(C)(C)C [Example 49, 6-[3-chloro-2,4-difluoro-5-(morpholin-4-yl)benzyl]-1-((S)-1-hydroxymethyl-2,2-dimethylpropyl)-7-methoxy-4-oxo-1,4-dihydroquinoline-3-carboxylic acid] | < 0.01 µM |
| CCO[C@H](C)[C@@H](CO)n1cc(C(=O)O)c(=O)c2cc(Cc3cc(N4CCOCC4)cc(Cl)c3F)c(OC)cc21 [Example 50, 6-[3-chloro-2-fluoro-5-(morpholin-4-yl)benzyl]-1-[(1R,2R)-2-ethoxy-1-(hydroxymethyl)propyl]-7-methoxy-4-oxo-1,4-dihydroquinoline-3-carboxylic acid] | 0.01 to 0.1 µM |
| CC(C)(C)[C@@H](CO)n1cc(C(=O)O)c(=O)c2cc(Cc3cc(N4CCCC4=O)cc(Cl)c3F)ccc21 [Example 51, 6-[3-chloro-2-fluoro-5-(2-oxopyrrolidin-1-yl)benzyl]-1-((S)-1-hydroxymethyl-2,2-dimethylpropyl)-4-oxo-1,4-dihydroquinoline-3-carboxylic acid] | < 0.01 µM |

— patent US7872004B2, “6-(heterocyclyl-substituted benzyl)-4-oxoquinoline compound and use thereof as HIV integrase inhibitor” (Japan Tobacco Inc., priority 2006, dated 2011)
